# Reference: US20100152434A1, “Protein Kinase-binding Nucleosides and Associated Methods” (priority 2007, published 2010)
# Where two headings read alike, the source gives them in different places.
# Key:
# HCC-2998 = settings: HCC-2993
# NCI-H460 = experiment: cells; settings: Homo sapiens, NCI-H460
# SNB-19 [1] = system: SNB-19
# NCI/ADR-RES = experiment: cells; settings: Homo sapiens
# RXF 393 = settings: RXF 393
# A549/ATCC [2] = experiment: cells; settings: Homo sapiens, A549
# M14 = experiment: cells; settings: Homo sapiens, M14
# SNB-75 = experiment: cells; settings: Homo sapiens, SNB-75
# SK-OV-3 = experiment: cells; settings: Homo sapiens, SK-OV-3
# SN12C = experiment: cells; settings: Homo sapiens
# A549/ATCC [3] = system: A549/ATCC
# RPMI-8226 [4] = experiment: cells; settings: Homo sapiens, RPMI-8226
# SNB-19 [5] = experiment: cells; settings: Homo sapiens, SNB-19
# HOP-92 = experiment: cells; settings: Homo sapiens, HOP-92
# RPMI-8226 [6] = system: RPMI-8226
# [7] = Log10 Concentration −4.0, Molar
# [8] = Log10 Concentration −5.0, Molar
# [9] = Log10 Concentration −6.0, Molar
# [10] = Log10 Concentration −7.0, Molar
# [11] = Log10 Concentration −8.0, Molar
structure (smiles),measurement,setting,value
"CNC(=O)NC[C@H]1O[C@@H](n2cnc3c(NC(=O)Nc4ccccc4)ncnc32)C(O[Si](C)(C)C(C)(C)C)[C@H]1O[Si](C)(C)C(C)(C)C (stereo partly shown) [Compound 25, 2′,3′-Bis-O-(tert-butyldimethylsilyl)-5-deoxy-5′-[(N-methylcarbamoyl)amino]-N^6-(N-phenylcarbamoyl)adenosine]",TGI,HCC-2998,3.75E−6 Molar
same,Percent Growth,HCC-2998; Log10 Concentration −4.0 Molar,−91%
same,Percent Growth,HCC-2998; Log10 Concentration −5.0 Molar,−79%
same,Percent Growth,HCC-2998; Log10 Concentration −6.0 Molar,106%
same,Percent Growth,HCC-2998; Log10 Concentration −7.0 Molar,93%
same,Percent Growth,HCC-2998; Log10 Concentration −8.0 Molar,100%
same,TGI,MCF7,1.93E−5 Molar
same,Percent Growth,MCF7; [7],−15%
same,Percent Growth,MCF7; [8],5%
same,Percent Growth,MCF7; [9],83%
same,Percent Growth,MCF7; [10],96%
same,Percent Growth,MCF7; [11],99%
same,GI50,NCI-H460,1.72 µM
same,IC50,NCI-H460,7.11 µM
same,TGI,CAKI-1,7.93E−6 Molar
same,Percent Growth,CAKI-1; [7],−33%
same,Percent Growth,CAKI-1; [8],−11%
same,Percent Growth,CAKI-1; [9],96%
same,Percent Growth,CAKI-1; [10],99%
same,Percent Growth,CAKI-1; [11],100%
same,TGI,SNB-19 [1],>1.00E−4 Molar
same,Percent Growth,SNB-19 [1]; [7],7%
same,Percent Growth,SNB-19 [1]; [8],29%
same,Percent Growth,SNB-19 [1]; [9],91%
same,Percent Growth,SNB-19 [1]; [10],100%
same,Percent Growth,SNB-19 [1]; [11],97%
same,GI50,NCI/ADR-RES,3.72 µM
same,IC50,NCI/ADR-RES,> 100 µM
same,TGI,SF-539,1.30E−5 Molar
same,Percent Growth,SF-539; [7],−51%
same,Percent Growth,SF-539; [8],7%
same,Percent Growth,SF-539; [9],91%
same,Percent Growth,SF-539; [10],100%
same,Percent Growth,SF-539; [11],100%
same,TGI,RXF 393,4.01E−6 Molar
same,Percent Growth,RXF 393; [7],−77%
same,Percent Growth,RXF 393; [8],−73%
same,Percent Growth,RXF 393; [9],111%
same,Percent Growth,RXF 393; [10],73%
same,Percent Growth,RXF 393; [11],96%
same,GI50,A549/ATCC [2],2.9 µM
same,IC50,A549/ATCC [2],> 100 µM
same,GI50,M14,4.33 µM
same,IC50,M14,93.8 µM
same,GI50,SNB-75,2.43 µM
same,IC50,SNB-75,> 100 µM
same,TGI,UACC-62,2.36E−5 Molar
same,Percent Growth,UACC-62; [7],−39%
same,Percent Growth,UACC-62; [8],23%
same,Percent Growth,UACC-62; [9],90%
same,Percent Growth,UACC-62; [10],100%
same,Percent Growth,UACC-62; [11],102%
same,GI50,SK-OV-3,5.88 µM
same,IC50,SK-OV-3,> 100 µM
same,TGI,MALME-3M,9.84E−6 Molar
same,Percent Growth,MALME-3M; [7],−48%
same,Percent Growth,MALME-3M; [8],−1%
same,Percent Growth,MALME-3M; [9],96%
same,Percent Growth,MALME-3M; [10],88%
same,Percent Growth,MALME-3M; [11],105%
same,GI50,SN12C,1.81 µM
same,IC50,SN12C,6.29 µM
same,TGI,T-47D,1.03E−5 Molar
same,Percent Growth,T-47D; [7],−32%
same,Percent Growth,T-47D; [9],92%
same,Percent Growth,T-47D; [10],105%
same,Percent Growth,T-47D; [11],101%
same,TGI,SF-268,1.40E−5 Molar
same,Percent Growth,SF-268; [7],45%
same,Percent Growth,SF-268; [8],8%
same,Percent Growth,SF-268; [9],102%
same,Percent Growth,SF-268; [10],106%
same,Percent Growth,SF-268; [11],104%
same,TGI,A549/ATCC [3],1.20E−5 Molar
same,Percent Growth,A549/ATCC [3]; [7],−30%
same,Percent Growth,A549/ATCC [3]; [8],4%
same,Percent Growth,A549/ATCC [3]; [9],90%
same,Percent Growth,A549/ATCC [3]; [10],98%
same,Percent Growth,A549/ATCC [3]; [11],99%
same,GI50,RPMI-8226 [4],3.27 µM
same,IC50,RPMI-8226 [4],> 100 µM
same,GI50,SNB-19 [5],4.57 µM
same,IC50,SNB-19 [5],> 100 µM
same,GI50,HOP-92,15.5 µM
same,IC50,HOP-92,97.5 µM
same,TGI,NCI-H522,7.14E−6 Molar
same,Percent Growth,NCI-H522; [7],−49%
same,Percent Growth,NCI-H522; [8],−15%
same,Percent Growth,NCI-H522; [9],90%
same,Percent Growth,NCI-H522; [10],90%
same,Percent Growth,NCI-H522; [11],92%
same,TGI,RPMI-8226 [6],>1.00E−4 Molar
same,Percent Growth,RPMI-8226 [6]; [7],4%
same,Percent Growth,RPMI-8226 [6]; [8],5%
same,Percent Growth,RPMI-8226 [6]; [9],98%
same,Percent Growth,RPMI-8226 [6]; [10],98%
same,Percent Growth,RPMI-8226 [6]; [11],102%
same,TGI,HT29,3.73E−6 Molar
same,Percent Growth,HT29; [7],−100%
same,Percent Growth,HT29; [8],−80%
same,Percent Growth,HT29; [9],107%
same,Percent Growth,HT29; [10],104%
same,Percent Growth,HT29; [11],102%
same,TGI,NCI-H322M,>1.00E−4 Molar
same,Percent Growth,NCI-H322M; Log10 Concentration −4.0 Molar,21%
same,Percent Growth,NCI-H322M; Log10 Concentration −5.0 Molar,39%
same,Percent Growth,NCI-H322M; Log10 Concentration −6.0 Molar,105%
same,Percent Growth,NCI-H322M; Log10 Concentration −7.0 Molar,106%
same,Percent Growth,NCI-H322M; Log10 Concentration −8.0 Molar,102%
